Experimental data taken from patent publication US12509431B2, “1,4-dihydroquinazolinone compounds and uses thereof” (Edgewise Therapeutics, Inc., priority 2022, dated 2025).

Key:
Type in all cases: biochemical
[1] = test system: Porcine Atria myofibrils; experiment: Myofibril ATPase assay (PK/LDH NADH-coupled), atria myofibrils
Procedure, shortened: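 Porcine atrial myofibril ATPase followed via PK/LDH-coupled NADH depletion, absorbance at 340 nm read every 1.5-2 min over 75 min. Slopes (mAU/min) normalized to vehicle as 100% and fit to a 4-parameter logistic; EC25% derived, plus EC50% for inhibitors.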

[2] = test system: Rabbit Skeletal myofibrils (rabbit psoas muscle); experiment: Myofibril ATPase assay (PK/LDH NADH-coupled), skeletal myofibrils
Procedure, shortened: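 Rabbit psoas myofibrils in pCa (PIPES/CaCl2/EGTA, pH 7.0) buffer; ADP coupled via PK/LDH to NADH loss, read at 340 nm every 1.5–2 min for 75 min. Slopes normalized to vehicle (100%) and fit to 4-parameter logistic for EC25, plus EC50 for inhibitors.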

[3] = biological target: T1, Porcine Ventricle myofibrils (left ventricle of Yucatan minipigs) (Sus scrofa, UniProt P79293); experiment: Myofibril ATPase assay (PK/LDH NADH-coupled), ventricle myofibrils
T1 construct: Myofibrils from porcine cardiac muscle was isolated from the left ventricle of Yucatan minipigs; tissue Exemplar Genetics; host or cells: left ventricle of Yucatan minipigs
Procedure, shortened: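 Yucatan minipig left-ventricle myofibrils; ATPase measured by PK/LDH-coupled NADH loss at 340 nm, read every 1.5-2 min for 75 min. Slopes normalized to vehicle (100%) and fit to 4-parameter logistic model; EC25 and, for inhibitors, EC50 calculated.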

T1 sequence (P79293 whole entry): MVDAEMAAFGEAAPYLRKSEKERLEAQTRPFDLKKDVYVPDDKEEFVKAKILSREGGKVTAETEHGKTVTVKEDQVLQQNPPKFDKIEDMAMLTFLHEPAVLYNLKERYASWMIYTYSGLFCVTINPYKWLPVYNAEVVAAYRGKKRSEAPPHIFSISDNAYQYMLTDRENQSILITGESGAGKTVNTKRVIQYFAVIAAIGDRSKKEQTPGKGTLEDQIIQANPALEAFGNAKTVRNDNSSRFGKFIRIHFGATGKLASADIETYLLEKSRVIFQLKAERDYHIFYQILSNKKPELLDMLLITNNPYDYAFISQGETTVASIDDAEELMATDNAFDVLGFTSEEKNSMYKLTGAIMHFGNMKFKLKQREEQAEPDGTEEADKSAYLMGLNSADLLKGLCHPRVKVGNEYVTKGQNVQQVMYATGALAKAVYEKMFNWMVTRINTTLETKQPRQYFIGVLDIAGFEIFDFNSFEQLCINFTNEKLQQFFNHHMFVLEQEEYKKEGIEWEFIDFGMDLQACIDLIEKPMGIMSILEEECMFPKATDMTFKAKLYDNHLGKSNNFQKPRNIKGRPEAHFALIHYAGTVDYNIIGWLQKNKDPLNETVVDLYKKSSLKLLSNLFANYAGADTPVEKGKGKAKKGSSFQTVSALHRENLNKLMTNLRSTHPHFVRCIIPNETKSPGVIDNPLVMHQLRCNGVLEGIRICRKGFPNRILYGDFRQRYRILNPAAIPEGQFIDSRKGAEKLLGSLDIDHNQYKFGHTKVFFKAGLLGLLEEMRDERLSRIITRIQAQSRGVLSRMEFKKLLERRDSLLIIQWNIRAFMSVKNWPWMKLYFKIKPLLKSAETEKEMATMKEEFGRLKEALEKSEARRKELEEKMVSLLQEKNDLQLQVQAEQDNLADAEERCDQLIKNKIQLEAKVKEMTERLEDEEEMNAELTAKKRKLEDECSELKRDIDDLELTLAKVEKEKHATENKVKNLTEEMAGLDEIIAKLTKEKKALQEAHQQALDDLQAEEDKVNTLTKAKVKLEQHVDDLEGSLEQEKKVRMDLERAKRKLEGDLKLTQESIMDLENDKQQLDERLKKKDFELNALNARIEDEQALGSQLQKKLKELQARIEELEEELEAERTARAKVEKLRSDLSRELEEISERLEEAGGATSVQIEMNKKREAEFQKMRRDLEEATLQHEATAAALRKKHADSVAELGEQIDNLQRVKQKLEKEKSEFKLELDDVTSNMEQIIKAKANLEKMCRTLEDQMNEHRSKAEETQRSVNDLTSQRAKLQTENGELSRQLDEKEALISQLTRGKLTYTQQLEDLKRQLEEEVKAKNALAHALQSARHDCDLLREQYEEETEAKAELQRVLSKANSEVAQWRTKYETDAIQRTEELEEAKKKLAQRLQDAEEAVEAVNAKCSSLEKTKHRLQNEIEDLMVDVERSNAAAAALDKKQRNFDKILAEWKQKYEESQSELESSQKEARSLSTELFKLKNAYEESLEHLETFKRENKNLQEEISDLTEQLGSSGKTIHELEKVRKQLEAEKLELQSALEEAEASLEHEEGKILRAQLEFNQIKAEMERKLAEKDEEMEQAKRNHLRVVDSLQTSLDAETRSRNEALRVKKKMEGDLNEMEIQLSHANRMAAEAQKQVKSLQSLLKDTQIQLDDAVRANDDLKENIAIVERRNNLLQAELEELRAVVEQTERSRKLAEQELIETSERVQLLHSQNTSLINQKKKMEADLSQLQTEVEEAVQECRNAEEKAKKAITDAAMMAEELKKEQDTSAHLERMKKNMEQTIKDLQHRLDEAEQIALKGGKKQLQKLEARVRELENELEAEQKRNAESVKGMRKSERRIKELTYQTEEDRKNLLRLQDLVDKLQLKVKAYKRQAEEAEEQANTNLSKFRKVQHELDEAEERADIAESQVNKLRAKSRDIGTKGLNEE

Porcine Atria IC25 ([1]; Table 8) | Rabbit Psoas IC25 ([2]; Table 8) | Porcine Ventricle IC25 ([3]; Table 8) | Porcine Atria IC25 ([1]; Table 7) | Rabbit Psoas IC25 ([2]; Table 7) | Porcine Ventricle IC25 ([3]; Table 7) | SMILES
 |  |  | 70.94 µM | 100 µM | 100 µM | N#Cc1cnc2c(c1)CC[C@H]2NC(=O)CN1C(=O)Nc2cccnc2C12CC2 [Compound N1]
 |  |  | 17.14 µM | 4.055 µM | 34.26 µM | N#Cc1cnc2c(c1)CC[C@@H]2NC(=O)CN1C(=O)Nc2cccnc2C12CC2 [Compound N2]
 |  |  | 2.59 µM | 18.85 µM | 100 µM | C[C@@H](NC(=O)CN1C(=O)Nc2ccc(C#N)nc2C12CC2)c1ncc(C#N)cc1F [Compound N3]
 |  |  | 0.07 µM | 0.1067 µM | 0.474 µM | C[C@H](NC(=O)CN1C(=O)Nc2ccc(C#N)nc2C12CC2)c1ncc(C#N)cc1F [Compound N4]
 |  |  | 0.07 µM | 0.0178 µM | 0.1154 µM | N#Cc1cc(F)c2c(c1)OC[C@H]2NC(=O)CN1Cc2c(ccnc2C(F)(F)F)NC1=O [Compound N5]
 |  |  | 2.82 µM | 2.918 µM | 38.22 µM | N#Cc1cc(F)c2c(c1)OC[C@@H]2NC(=O)CN1Cc2c(ccnc2C(F)(F)F)NC1=O [Compound N6]
 |  |  | 0.11 µM | 0.0355 µM | 0.266 µM | N#Cc1nccc2c1CN(CC(=O)N[C@@H]1COc3cc(F)cc(F)c31)C(=O)N2 [Compound N7]
 |  |  | 2.20 µM | 0.3271 µM | 13.21 µM | N#Cc1nccc2c1CN(CC(=O)N[C@H]1COc3cc(F)cc(F)c31)C(=O)N2 [Compound N8]
 |  |  | 0.82 µM | 0.4579 µM | 13.44 µM | O=C(CN1Cc2cnccc2NC1=O)N[C@@H]1COc2cc(F)cc(F)c21 [Compound N10]
 |  |  | 100.00 µM | 100 µM | 100 µM | O=C(CN1Cc2cnccc2NC1=O)N[C@H]1COc2cc(F)cc(F)c21 [Compound N11]
 |  |  | 7.63 µM | 100 µM | 100 µM | C[C@@H](NC(=O)CN1C(=O)Nc2ccc(C#N)nc2C12CC2)c1ccc(F)cc1F [Compound N12]
 |  |  | 0.07 µM | 0.063 µM | 0.8569 µM | C[C@H](NC(=O)CN1C(=O)Nc2ccc(C#N)nc2C12CC2)c1ccc(F)cc1F [Compound N13]
 |  |  | 1.16 µM | 100 µM | 100 µM | C[C@@H](NC(=O)CN1C(=O)Nc2ccc(C#N)nc2C12CC2)c1ncc(F)cc1F [Compound N14]
 |  |  | 0.07 µM | 0.197 µM | 2.788 µM | C[C@H](NC(=O)CN1C(=O)Nc2ccc(C#N)nc2C12CC2)c1ncc(F)cc1F [Compound N15, 2-{6′-Cyano-2′-oxo-1′H-spiro[cyclopropane-1,4′-pyrido[3,2-d]pyrimidin]-3′-yl}-N-[(1S)-1-(3,5-difluoropyridin-2-yl)ethyl]acetamide]
 |  |  | 0.60 µM | 1.645 µM | 100 µM | C[C@@H](NC(=O)CN1C(=O)Nc2cccnc2C12CC2)c1ccc(C#N)cn1 [Compound N16]
 |  |  | 75.12 µM | 100 µM | 100 µM | C[C@H](NC(=O)CN1C(=O)Nc2cccnc2C12CC2)c1ccc(C#N)cn1 [Compound N17]

Further lines, the compound ahead of its results:

SMILES | Porcine Atria IC25 ([1]; Table 8) | Rabbit Psoas IC25 ([2]; Table 8) | Porcine Ventricle IC25 ([3]; Table 8) | Porcine Atria IC25 ([1]; Table 7) | Rabbit Psoas IC25 ([2]; Table 7) | Porcine Ventricle IC25 ([3]; Table 7)
C[C@@H](NC(=O)CN1C(=O)Nc2ccc(F)cc2C12CC2)c1ccc(C#N)nn1 [Compound B334] | 0.58 µM | 1.02 µM | 1.56 µM |  |  | 
C[C@H](NC(=O)CN1C(=O)Nc2ccc(F)cc2C12CC2)c1ccc(C#N)nn1 [Compound B335] | 9.42 µM | 100.00 µM | 100.00 µM |  |  | 
C[C@@H](NC(=O)CN1C(=O)Nc2ccc(F)cc2C12CC2)c1cnc(C#N)cn1 [Compound B336] | 0.10 µM | 0.17 µM | 0.27 µM |  |  | 
C[C@H](NC(=O)CN1C(=O)Nc2ccc(F)cc2C12CC2)c1cnc(C#N)cn1 [Compound B337] | 1.01 µM | 100.00 µM | 7.01 µM |  |  | 
Cc1nc([C@@H](C)NC(=O)CN2Cc3c(ccc(F)c3F)NC2=O)cnc1C#N [Compound B338] | 0.08 µM | 17.15 µM | 1.67 µM |  |  | 
Cc1nc(C(C)NC(=O)CN2Cc3c(ccc(F)c3F)NC2=O)no1 (stereo not drawn) [Compound B340] | 3.80 µM | 100.00 µM | 100.00 µM |  |  | 
C[C@@H](NC(=O)CN1Cc2c(ccc(F)c2F)NC1=O)c1ncnc(C#N)c1F [Compound B341] | 0.73 µM | 1.68 µM | 0.35 µM |  |  | 
C[C@H](NC(=O)CN1Cc2c(ccc(F)c2F)NC1=O)c1ncnc(C#N)c1F [Compound B342] | 0.93 µM | 2.45 µM | 4.85 µM |  |  | 
Cc1ncnc([C@@H](C)NC(=O)CN2Cc3c(ccc(F)c3F)NC2=O)c1F [Compound B343] | 4.12 µM | 100.00 µM | 100.00 µM |  |  | 
Cc1ncnc([C@H](C)NC(=O)CN2Cc3c(ccc(F)c3F)NC2=O)c1F [Compound B344] | 1.29 µM | 2.78 µM | 8.84 µM |  |  | 
Cc1nnc(C(C)NC(=O)CN2Cc3c(ccc(F)c3F)NC2=O)o1 (stereo not drawn) [Compound B345] | 57.06 µM | 100.00 µM | 100.00 µM |  |  | 
Cc1ncc(F)c([C@@H](C)NC(=O)CN2Cc3c(ccc(F)c3F)NC2=O)n1 [Compound B346] | 0.22 µM | 59.27 µM | 1.63 µM |  |  | 
Cc1ncc(F)c([C@H](C)NC(=O)CN2Cc3c(ccc(F)c3F)NC2=O)n1 [Compound B347] | 100.00 µM | 100.00 µM | 100.00 µM |  |  | 
Cc1ncc(C#N)nc1[C@@H](C)NC(=O)CN1Cc2c(ccc(F)c2F)NC1=O [Compound B348] | 10.17 µM | 9.36 µM | 6.79 µM |  |  | 
Cc1ncc(C#N)nc1[C@H](C)NC(=O)CN1Cc2c(ccc(F)c2F)NC1=O [Compound B349] | 0.22 µM | 5.32 µM | 0.83 µM |  |  | 
O=C(CN1Cc2c(ccc(F)c2F)NC1=O)N[C@@H]1CCc2cc(F)cnc21 [Compound B350] | 0.30 µM | 0.62 µM | 0.50 µM |  |  | 
Cc1nc([C@H](C)NC(=O)CN2Cc3c(ccc(F)c3F)NC2=O)ncc1C#N [Compound B353] | 1.99 µM | 2.49 µM | 2.24 µM |  |  | 
Cc1nc(C#N)cnc1[C@@H](CO)NC(=O)CN1Cc2c(ccc(F)c2F)NC1=O [Compound B354] | 0.21 µM | 68.36 µM | 3.83 µM |  |  | 
Cc1nc(C#N)cnc1[C@H](CO)NC(=O)CN1Cc2c(ccc(F)c2F)NC1=O [Compound B355] | 0.05 µM | 0.07 µM | 0.14 µM |  |  | 
C[C@H](NC(=O)CN1Cc2cc(F)c(F)cc2NC1=O)c1ncc(C#N)cc1F [Compound B358] | 0.10 µM | 0.13 µM | 0.33 µM |  |  | 
Cc1nsc([C@@H](C)NC(=O)CN2Cc3c(ccc(F)c3F)NC2=O)n1 [Compound B359] | 4.96 µM | 13.87 µM | 100.00 µM |  |  | 
C[C@@H](NC(=O)CN1Cc2c(ccc(F)c2F)NC1=O)c1cc2c(cn1)N(C)CCO2 [Compound B360] | 44.86 µM | 100.00 µM | 9.49 µM |  |  | 
C[C@H](NC(=O)CN1Cc2c(ccc(F)c2F)NC1=O)c1cc2c(cn1)N(C)CCO2 [Compound B361] | 100.00 µM | 100.00 µM | 100.00 µM |  |  | 
O=C(CN1Cc2c(ccc(F)c2F)NC1=O)N[C@@H]1COCc2cc(F)cnc21 [Compound B362] | 100.00 µM | 0.52 µM | 1.04 µM |  |  | 
O=C(CN1Cc2c(ccc(F)c2F)NC1=O)N[C@H]1COCc2cc(F)cnc21 [Compound B363] | 100.00 µM | 100.00 µM | 100.00 µM |  |  | 
C[C@@H](NC(=O)CN1Cc2c(ccc(F)c2F)NC1=O)c1cc2c(cn1)OCCN2 [Compound B364] | 20.41 µM | 100.00 µM | 100.00 µM |  |  | 
C[C@H](NC(=O)CN1Cc2c(ccc(F)c2F)NC1=O)c1cc2c(cn1)OCCN2 [Compound B365] | 100.00 µM | 100.00 µM | 100.00 µM |  |  | 
